Literature values, collected in article PMC3136501 (PLoS ONE, 2011).

Tested on: OCTs
Details: high-affinity interaction with OCTs; cited from earlier work
For Nc1nc(NC2CC2)c2ncn([C@H]3C=C[C@@H](CO)C3)c2n1 [Abacavir], the “IC50 (interaction with OCTs)” value is given as “low nanomolar range”.
In the case of Cc1cn([C@H]2C[C@H](N=[N+]=[N-])[C@@H](CO)O2)c(=O)[nH]c1=O [Azidothymidine], the “IC50 (interaction with OCTs)” value is listed as “low nanomolar range”.
In the case of Nc1nc(=O)n([C@@H]2CS[C@H](CO)O2)cc1F [Emtricitabine], the “IC50 (interaction with OCTs)” value is listed as “low nanomolar range”.
For Nc1ccn([C@@H]2CS[C@H](CO)O2)c(=O)n1 [Lamivudine], the “IC50 (interaction with OCTs)” value is listed as “low nanomolar range”.
In the case of C[C@H](Cn1cnc2c(N)ncnc21)OCP(=O)(O)O [Tenofovir], the “IC50 (interaction with OCTs)” value is given as “low nanomolar range”.
